# According to PMC9775191, “A Subset Screen of the Compounds Australia Scaffold Library Identifies 7-Acylaminodibenzoxazepinones as Potent and Selective Hits for Anti-Giardia Drug Discovery” (Biomedicines, 2022):
# System: G. duodenalis BRIS/91/HEPU/1279
# Experiment: Giardia dose response assay, assemblage B
# Format: cell-based, Giardia duodenalis
# Settings: Giardia duodenalis, 48 h, BRIS/91/HEPU/1279; 48 h; mean ± SD; read-out: IC50 Giardia (48 h)
# Method: In these assays, compounds were serially diluted (8–12-point doubling dilutions in technical duplicate) in DMSO control media, with all test wells inoculated with parasites (1.5 × 10^4 parasites for BRIS/91/HEPU/1279 and BRIS/91/HEPU/1279m1, or 3 × 10^3 parasites for BRIS/87/HEPU/713). […] All plates were sealed in culture chambers and gassed with 3% O2, 5% CO2 in N2 and incubated at 37 °C for 48 h, with parasites imaged and enumerated at 24 and 48 h. Growth inhibition was calculated as a percentage relative to vehicle controls minus any background as described above and IC50 values were determined using log-linear interpolation as previously described. […] Statistical comparison of IC50 values when required were performed using Student’s t-test.
row,SMILES,IC50
1,CN1C(=O)c2ccccc2Oc2cc(NC(=O)CNC(=O)c3ccco3)ccc21 [SN00797638],> 10 µM
2,Cc1cccc(C(=O)Nc2ccc3c(c2)Oc2ccccc2C(=O)N3C)c1 [SN00797639],> 10 µM
3,CN1C(=O)c2ccccc2Oc2cc(NC(=O)COc3ccc(Cl)cc3)ccc21 [SN00797641],> 10 µM
4,CN1C(=O)c2ccccc2Oc2cc(NC(=O)C3(c4ccccc4)CC3)ccc21 [SN00797642],> 10 µM
5,CN1C(=O)c2ccccc2Oc2cc(NC(=O)c3ccoc3)ccc21 [SN00797644],> 10 µM
6,CN1C(=O)c2ccccc2Oc2cc(NC(=O)c3cccc(Br)c3)ccc21 [SN00797645],> 10 µM
7,CN1C(=O)c2ccccc2Oc2cc(NC(=O)c3ccccc3)ccc21 [SN00797647],> 10 µM
8,CN1C(=O)c2ccccc2Oc2cc(NC(=O)c3cc4cc(Cl)ccc4[nH]3)ccc21 [SN00797649],> 10 µM
9,COc1ccc(C(=O)Nc2ccc3c(c2)Oc2ccccc2C(=O)N3C(C)C)c(OC)c1 [SN00797650],> 10 µM
10,CC(=O)Nc1cccc(C(=O)Nc2ccc3c(c2)Oc2ccccc2C(=O)N3C(C)C)c1C [SN00797651],> 10 µM
11,CC(C)N1C(=O)c2ccccc2Oc2cc(NC(=O)CNC(=O)c3ccco3)ccc21 [SN00797652],> 10 µM
12,Cc1ccc(N2CC(C(=O)Nc3ccc4c(c3)Oc3ccccc3C(=O)N4C(C)C)CC2=O)cc1C (stereo not shown) [SN00797653],> 10 µM
13,Cc1ccc(N2CC(C(=O)Nc3ccc4c(c3)Oc3ccccc3C(=O)N4C(C)C)CC2=O)cc1 (stereo not shown) [SN00797654],> 10 µM
14,CC(C)N1C(=O)c2ccccc2Oc2cc(NC(=O)C3CC(=O)N(c4ccccc4)C3)ccc21 (stereo not shown) [SN00797655],> 10 µM
15,Cc1ccc(C(=O)NCC(=O)Nc2ccc3c(c2)Oc2ccccc2C(=O)N3C(C)C)cc1 [SN00797656],> 10 µM
16,CC(C)N1C(=O)c2ccccc2Oc2cc(NC(=O)c3cccs3)ccc21 [SN00797657],> 10 µM
17,Cc1ccc(C(=O)Nc2ccc3c(c2)Oc2ccccc2C(=O)N3C(C)C)cc1 [SN00797658],> 10 µM
18,CC(C)N1C(=O)c2ccccc2Oc2cc(NC(=O)C3CCCCC3)ccc21 [SN00797659],> 10 µM
19,CC(C)N1C(=O)c2ccccc2Oc2cc(NC(=O)c3ccccc3)ccc21 [SN00797661],> 10 µM
20,COc1ccc(OCC(=O)Nc2ccc3c(c2)Oc2ccccc2C(=O)N3C(C)C)cc1 [SN00797662],> 10 µM
21,Cc1ccc(C(=O)Nc2ccc3c(c2)Oc2ccccc2C(=O)N3C(C)C)cc1F [SN00797663],> 10 µM
22,CCn1ccc(C(=O)Nc2ccc3c(c2)Oc2ccccc2C(=O)N3C(C)C)n1 [SN00797664],> 10 µM
